This note sets out measurements from EP1152011A1, “PEPTIDES INHIBITING VASCULAR ENDOTHELIAL CELL MIGRATION” (KYOWA HAKKO KOGYO CO., LTD., priority 1999, dated 2000).

The subject of this assay is Swine aorta endothelial cells. Kind of assay: Measurement of activity inhibiting swine vascular endothelial cell migration. It counts as cell-based. The conditions noted are these: test compound at 10 µmol/L; 6 hours pre-culture, cells scraped off with razor blade, then 24 hours culture; 0.1% bovine serum albumin-containing Dulbecco's modified Eagle medium; value ± SD. The text has this: Measurement of activity inhibiting swine vascular endothelial cell migration: Swine aorta endothelial cells (5th to 7th generations) were suspended in the 10% fetus calf serum-containing Dulbecco's modified Eagle medium and inoculated at a cell density of 32,000 cells/cm^2 in a 6-well plate, for culturing until the cells formed a single layer over the whole bottom of the culture dish. Subsequently, the culture broth was exchanged to the 0.1% bovine serum albumin-containing Dulbecco's modified Eagle medium containing a test compound at a concentration of 10 µmol/L, followed by culturing for 6 hours. Then, a part of the cells on the bottom of the culture dish was scraped off using a razor blade. Subsequently, the culture broth was exchanged to the 0.1% bovine serum albumin-containing Dulbecco's modified Eagle medium containing a test compound in a concentration of 10 µmol/L, followed by culturing for 24 hours. After immobilizing the cells, the number of the cells which had migrated on the bottom portion of the culture dish, where a part of the cells had been scraped off, was counted. The inhibition ratio of cell migration was calculated by the following equation. Inhibition ratio of cell migration (%) = (1 - the number of cells which had migrated in the presence of the test compound/the number of cells which had migrated in the absence of the test compound) × 100 [formula]

Residues, ends and D or L forms follow the SMILES beside them.

In the case of `CC[C@H](C)[C@H](NC(=O)[C@H](CO)NC(=O)[C@H](C)NC(=O)[C@@H]1CCCN1C(=O)[C@H](CO)NC(=O)[C@H](Cc1c[nH]c2ccccc12)NC(=O)[C@@H](NC(=O)[C@@H](NC(=O)[C@H](Cc1c[nH]c2ccccc12)NC(=O)[C@H](CCC(=O)O)NC(=O)[C@H](CO)NC(=O)[C@@H](N)CCSC)[C@@H](C)CC)[C@@H](C)O)C(=O)N[C@@H](CO)C(=O)N[C@@H](C)C(=O)NCC(N)=O` [Compound 1, H-Met-Ser-Glu-Trp-Ile-Thr-Trp-Ser-Pro-Ala-Ser-Ile-Ser-Ala-Gly-NH2] (H-MSEWITWSPASISAG-NH2), the “Inhibition ratio of cell migration (%) ± SD” value (from here on “Inhibition ratio … (%) ± SD”) is 24.5±4.9%.
On to `CC(C)C[C@H](NC(=O)[C@H](CO)NC(=O)[C@@H](N)CC(C)C)C(=O)N[C@@H](Cc1c[nH]c2ccccc12)C(=O)N[C@@H](CO)C(=O)N[C@@H](CCC(=O)O)C(=O)N[C@@H](Cc1c[nH]c2ccccc12)C(=O)N[C@@H](CO)C(=O)N[C@@H](CC(=O)O)C(=O)N[C@@H](C)C(=O)N[C@@H](CO)C(=O)N[C@H](C(=O)N[C@H](C(=O)N[C@@H](C)C(=O)NCC(N)=O)[C@@H](C)O)C(C)C` [Compound 2, H-Leu-Ser-Leu-Trp-Ser-Glu-Trp-Ser-Asp-Ala-Ser-Val-Thr-Ala-Gly-NH2] (H-LSLWSEWSDASVTAG-NH2), for which the “Inhibition ratio … (%) ± SD” value worked out at 41.5±2.1%.
Then `C[C@H](NC(=O)[C@H](C)NC(=O)[C@H](CO)NC(=O)[C@H](Cc1c[nH]c2ccccc12)NC(=O)[C@@H]1CCCN1C(=O)[C@H](CO)NC(=O)[C@H](Cc1c[nH]c2ccccc12)NC(=O)[C@H](CC(N)=O)NC(=O)[C@H](CO)NC(=O)[C@@H](N)Cc1ccc(O)cc1)C(=O)N[C@@H](CO)C(=O)N[C@@H](CO)C(=O)N[C@@H](CO)C(=O)N[C@H](C(=O)N[C@@H](C)C(=O)N[C@@H](CC(=O)O)C(N)=O)[C@@H](C)O` [Compound 3, H-Tyr-Ser-Asn-Trp-Ser-Pro-Trp-Ser-Ala-Ala-Ser-Ser-Ser-Thr-Ala-Asp-NH2] (H-YSNWSPWSAASSSTAD-NH2), with 12.3±10.0%; and `CSCC[C@H](N)C(=O)N[C@H](C(=O)N[C@@H](CCC(=O)O)C(=O)N[C@@H](Cc1c[nH]c2ccccc12)C(=O)NCC(=O)N[C@@H](CCC(=O)O)C(=O)N[C@@H](Cc1c[nH]c2ccccc12)C(=O)N[C@@H](CC(=O)O)C(=O)N[C@@H](CCC(=O)O)C(=O)N[C@@H](C)C(=O)N[C@@H](CO)C(=O)N[C@@H](C)C(=O)N[C@H](C(=O)N[C@@H](C)C(=O)NCC(N)=O)[C@@H](C)O)[C@@H](C)O` [Compound 4, H-Met-Thr-Glu-Trp-Gly-Glu-Trp-Asp-Glu-Ala-Ser-Ala-Thr-Ala-Gly-NH2] (H-MTEWGEWDEASATAG-NH2), with 7.4±13.2%; and `CC(C)C[C@H](N)C(=O)N[C@H](C(=O)N[C@@H](CCC(=O)O)C(=O)N[C@@H](Cc1c[nH]c2ccccc12)C(=O)N[C@@H](CO)C(=O)N[C@@H](CCC(N)=O)C(=O)N[C@@H](Cc1c[nH]c2ccccc12)C(=O)N[C@@H](CO)C(=O)N[C@@H](CCC(=O)O)C(=O)N[C@@H](C)C(=O)N[C@@H](CC(N)=O)C(=O)N[C@@H](CCCCN)C(=O)N[C@@H](CO)C(=O)N[C@@H](C)C(=O)NCC(N)=O)[C@@H](C)O` [Compound 5, H-Leu-Thr-Glu-Trp-Ser-Gln-Trp-Ser-Glu-Ala-Asn-Lys-Ser-Ala-Gly-NH2] (H-LTEWSQWSEANKSAG-NH2), with 10.8±6.0%.
To `CSCC[C@H](N)C(=O)N[C@@H](CCCNC(=N)N)C(=O)N1CCC[C@H]1C(=O)N[C@@H](Cc1c[nH]c2ccccc12)C(=O)N[C@H](C(=O)N[C@@H](C)C(=O)N[C@@H](Cc1c[nH]c2ccccc12)C(=O)N[C@@H](CO)C(=O)N[C@@H](CCC(=O)O)C(=O)N[C@@H](C)C(=O)N[C@H](C(=O)N[C@@H](CCCCN)C(=O)N[C@@H](CC(C)C)C(=O)N[C@@H](C)C(=O)NCC(N)=O)[C@@H](C)O)[C@@H](C)O` [Compound 6, H-Met-Arg-Pro-Trp-Thr-Ala-Trp-Ser-Glu-Ala-Thr-Lys-Leu-Ala-Gly-NH2] (H-MRPWTAWSEATKLAG-NH2) belongs 5.7±8.0%; to `CSCC[C@H](NC(=O)[C@H](CCCNC(=N)N)NC(=O)[C@H](CCCCN)NC(=O)CNC(=O)[C@H](CCCCN)NC(=O)[C@@H](N)CC(=O)O)C(=O)N[C@@H](CCCNC(=N)N)C(=O)N[C@@H](CCC(N)=O)C(=O)N[C@@H](CCCNC(=N)N)C(=O)N[C@@H](CCSC)C(=O)N[C@@H](CC(C)C)C(=O)N[C@@H](CCCCN)C(=O)N[C@@H](C)C(=O)N[C@@H](CCC(N)=O)C(=O)N[C@@H](CC(C)C)C(N)=O` [Compound 7, H-Asp-Lys-Gly-Lys-Arg-Met-Arg-Gln-Arg-Met-Leu-Lys-Ala-Gln-Leu-NH2] (H-DKGKRMRQRMLKAQL-NH2), 9.3±1.6%.
To `CC[C@H](C)[C@H](NC(=O)[C@H](CCSC)NC(=O)[C@H](CCCNC(=N)N)NC(=O)[C@H](Cc1c[nH]cn1)NC(=O)[C@H](CCCNC(=N)N)NC(=O)[C@H](CCCCN)NC(=O)[C@H](CCCCN)NC(=O)[C@@H](N)CCSC)C(=O)N[C@@H](CCCCN)C(=O)N[C@@H](CCSC)C(=O)N[C@@H](CC(N)=O)C(=O)N1CCC[C@H]1C(=O)N[C@@H](C)C(=O)N[C@@H](CC(=O)O)C(=O)NCC(N)=O` [Compound 8, H-Met-Lys-Lys-Arg-His-Arg-Met-Ile-Lys-Met-Asn-Pro-Ala-Asp-Gly-NH2] (H-MKKRHRMIKMNPADG-NH2) belongs 7.2±1.2%.
For the compound `CC[C@H](C)[C@H](NC(=O)[C@H](CCSC)NC(=O)[C@H](CCCNC(=N)N)NC(=O)[C@@H](NC(=O)[C@H](CCCNC(=N)N)NC(=O)[C@@H](NC(=O)[C@@H](NC(=O)[C@H](Cc1c[nH]cn1)NC(=O)CNC(=O)[C@H](CCCCN)NC(=O)CN)C(C)C)[C@@H](C)CC)[C@@H](C)O)C(=O)N[C@@H](CCC(N)=O)C(=O)N[C@@H](CCSC)C(=O)N[C@@H](CCC(=O)O)C(N)=O` [Compound 9, H-Gly-Lys-Gly-His-Val-Ile-Arg-Thr-Arg-Met-Ile-Gln-Met-Glu-NH2] (H-GKGHVIRTRMIQME-NH2), the “Inhibition ratio … (%) ± SD” value is 3.9±1.6%.
Then `CC[C@H](C)[C@H](NC(=O)[C@H](CCCNC(=N)N)NC(=O)[C@H](C)NC(=O)[C@H](CCCCN)NC(=O)[C@H](CCCCN)NC(=O)[C@H](CCCNC(=N)N)NC(=O)[C@H](CCC(N)=O)NC(=O)[C@@H](NC(=O)[C@@H](NC(=O)[C@H](CCC(=O)O)NC(=O)[C@@H]1CCCN1C(=O)[C@H](C)NC(=O)[C@@H]1CCCN1)[C@@H](C)O)C(C)C)C(=O)N[C@@H](CCCNC(=N)N)C(=O)N[C@@H](CCCCN)C(N)=O` [Compound 10, H-Pro-Ala-Pro-Glu-Thr-Val-Gln-Arg-Lys-Lys-Ala-Arg-Ile-Arg-Lys-NH2] (H-PAPETVQRKKARIRK-NH2), with 20.6±1.9%; and `CSCC[C@H](NC(=O)[C@H](Cc1ccc(O)cc1)NC(=O)[C@@H](N)CCCNC(=N)N)C(=O)N[C@H](C(=O)N[C@H](C(=O)N[C@@H](CCCCN)C(=O)N[C@@H](CCCCN)C(=O)N[C@@H](CCCNC(=N)N)C(=O)N[C@@H](Cc1ccccc1)C(=O)N[C@@H](CCCCN)C(=O)N[C@@H](CO)C(=O)N[C@@H](CO)C(=O)N[C@@H](CCC(N)=O)C(=O)N[C@@H](Cc1ccccc1)C(=O)N[C@H](C(N)=O)[C@@H](C)O)C(C)C)[C@@H](C)O` [Compound 11, H-Arg-Tyr-Met-Thr-Val-Lys-Lys-Arg-Phe-Lys-Ser-Ser-Gln-Phe-Thr-NH2] (H-RYMTVKKRFKSSQFT-NH2), with 12.2±10.7%.
